For series [1], the target named is T1, zebrafish monoamine oxidase (zMAO) (Danio rerio, UniProt Q6NSN2).
T1 sequence (Q6NSN2 1-522): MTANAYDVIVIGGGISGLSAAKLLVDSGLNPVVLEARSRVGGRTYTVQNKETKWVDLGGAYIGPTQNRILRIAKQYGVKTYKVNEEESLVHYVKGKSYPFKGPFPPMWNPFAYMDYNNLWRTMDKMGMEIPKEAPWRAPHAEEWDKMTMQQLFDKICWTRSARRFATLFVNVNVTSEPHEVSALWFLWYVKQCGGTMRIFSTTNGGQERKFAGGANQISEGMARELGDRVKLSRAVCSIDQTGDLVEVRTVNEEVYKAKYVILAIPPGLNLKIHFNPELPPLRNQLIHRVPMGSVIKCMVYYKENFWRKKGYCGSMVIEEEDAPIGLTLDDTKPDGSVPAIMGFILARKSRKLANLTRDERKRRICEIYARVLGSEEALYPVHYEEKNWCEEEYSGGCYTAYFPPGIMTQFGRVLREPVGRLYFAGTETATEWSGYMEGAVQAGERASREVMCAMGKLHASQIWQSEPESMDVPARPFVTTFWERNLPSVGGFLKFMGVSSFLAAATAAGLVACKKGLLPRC
The series can be described thus: Reversible inhibition of zMAO with kynuramine as substrate. The format is biochemical.

For series [2], the target named is T1, zebrafish monoamine oxidase (zMAO). The series can be described thus: Steady-state kinetics of zMAO-catalyzed amine substrate oxidation. The class given is biochemical. The settings on record: for ^Dkcat: deuterium kinetic isotope effect; for kcat (H): air saturation (240 μM O2); for kcat (D): α,α-2[H] benzylamine analogue.
Series [3] addresses T2, hMAO A (Homo sapiens, UniProt P21397).
T2 sequence (P21397 1-527): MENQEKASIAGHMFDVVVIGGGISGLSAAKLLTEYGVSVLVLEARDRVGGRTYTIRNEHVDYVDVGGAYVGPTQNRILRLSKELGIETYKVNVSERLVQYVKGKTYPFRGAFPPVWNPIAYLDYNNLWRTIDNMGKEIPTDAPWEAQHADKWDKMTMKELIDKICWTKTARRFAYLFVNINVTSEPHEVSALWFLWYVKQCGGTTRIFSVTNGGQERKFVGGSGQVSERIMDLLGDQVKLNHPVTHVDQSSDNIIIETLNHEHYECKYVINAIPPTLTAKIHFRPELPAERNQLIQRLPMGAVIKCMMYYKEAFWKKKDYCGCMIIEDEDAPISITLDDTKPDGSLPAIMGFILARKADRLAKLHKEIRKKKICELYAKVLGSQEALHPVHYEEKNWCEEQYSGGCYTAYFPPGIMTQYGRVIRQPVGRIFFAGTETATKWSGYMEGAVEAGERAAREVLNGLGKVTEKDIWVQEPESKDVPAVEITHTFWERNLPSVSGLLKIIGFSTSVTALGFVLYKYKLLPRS
To be noted: cited from earlier work; for Ki: hMAO A.

In series [4] the target is T3, hMAO B (Homo sapiens, UniProt P27338).
T3 sequence (P27338 1-520): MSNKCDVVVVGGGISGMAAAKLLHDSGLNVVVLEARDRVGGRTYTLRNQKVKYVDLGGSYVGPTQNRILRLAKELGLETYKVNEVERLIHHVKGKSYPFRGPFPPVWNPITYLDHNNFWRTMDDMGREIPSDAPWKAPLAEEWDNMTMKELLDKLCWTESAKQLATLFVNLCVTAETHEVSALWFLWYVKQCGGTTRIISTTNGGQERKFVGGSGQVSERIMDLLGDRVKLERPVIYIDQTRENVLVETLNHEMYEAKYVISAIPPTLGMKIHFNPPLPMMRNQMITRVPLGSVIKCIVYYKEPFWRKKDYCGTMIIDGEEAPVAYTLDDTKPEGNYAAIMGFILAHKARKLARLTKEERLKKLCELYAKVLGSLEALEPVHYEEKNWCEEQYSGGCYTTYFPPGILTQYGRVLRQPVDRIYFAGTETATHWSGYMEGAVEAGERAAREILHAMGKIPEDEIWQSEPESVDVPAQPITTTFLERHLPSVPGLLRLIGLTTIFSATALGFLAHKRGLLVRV
The series can be described thus: Reversible inhibition of hMAO B. The format is biochemical. The settings on record: no reference mark, indole analogues tested up to 100 μM.

Series [5] has as its target T3, hMAO B. To be noted: cited from earlier work.
The target of series [6] is T3, hMAO B. To be noted: cited from earlier work. This is another data set of the same source.
The target of series [7] is T2, hMAO A. The settings on record: ref Li, cited from earlier work.
Substrate in series [8]: NCCc1ccc(O)c(O)c1
The series can be described thus: purified protein, by the assay type. To be noted: other: zMAO, 25 °C, pH 7.4.

Substrate in series [9]: NCCCCc1ccccc1
The series can be described thus: Steady-state kinetics of zMAO-catalyzed amine substrate oxidation. The settings on record: other: zMAO, 25 °C, pH 7.4. The class given is biochemical, Danio rerio.

Substrate in series [10]: NCCc1ccc(O)cc1
Described as above. The format is biochemical, Danio rerio. To be noted: other: zMAO, 25 °C, pH 7.4.

Substrate in series [11]: NCCC(=O)c1ccccc1N
The description is as above. The class given is biochemical, Danio rerio. The settings on record: other: zMAO, 25 °C, pH 7.4.

Substrate in series [12]: NCc1ccccc1
The description is as above. The class given is biochemical, Danio rerio. To be noted: other: zMAO, para-substituted benzylamine; pH 7.4; 25.0 °C.

Setting [13] is: zMAO, hMAO B specific inhibitors (Table 3), kynuramine substrate.
Where [14] appears, read: read-out: Km(H), zMAO, para-substituted benzylamine.
Where [15] appears, read: zMAO, para-substituted benzylamine.
Where [16] appears, read: zMAO, hMAO A specific inhibitors (Table 2), kynuramine substrate.
[17] abbreviates: ref Nandigama and Edmondson (2000).

Like-named read-outs stand apart in the source and are kept apart here.

As for `C[C@H](NCc1ccc(OCc2cccc(F)c2)cc1)C(N)=O` [Safinamide], the Ki result in series [1] (setting [13]) is “No inhibition”.

As for `Cc1ccc(CN)cc1` [p-Me], in series [2] (setting [14]), the Km is 67.8 ± 4.1 µM. For the same molecule, in series [2] (zMAO), the “^Dkcat” value came out at 6.4 ± 0.2 min⁻¹ and the “kcat (D)” value came out at 0.018 ± 0.00033 s⁻¹. Further, the “kcat (H)” value in series [2] (setting [15]) was 0.115 ± 0.0017 s⁻¹.

For the molecule `CS(=O)(=O)O.Cc1ccc2c(c1)c1c3n2CCNC3CCC1` (stereo not drawn) [Pirlindole Mesylate], the Ki in [1] (setting [16]) was 2.4 ± 0.4 µM; on hMAO A [3] (ref Wang, et al. (2009)) it was 0.92 ± 0.04 µM; at hMAO B [4], “No Inhibition”.

Take `NCc1ccc(C(=O)O)cc1` [p-Carboxybenzylamine]: in series [2] (zMAO, 25 °C, pH 7.4), the Km was 76 ± 8 µM and the catalytic constant (kcat) came out at 0.0883 ± 0.0033 s⁻¹.

As to `C(C=Cc1ccccc1)=Cc1ccccc1` [1,4-Diphenyl-1,3-Butadiene], the Ki result in series [1] (setting [13]) was “No inhibition”.

Regarding `NCc1ccc(C(F)(F)F)cc1` [p-CF3], the Km in [2] (setting [14]) amounted to 115 ± 36 µM. Also, in [2] (zMAO), the “^Dkcat” value was 4.2 ± 0.3 min⁻¹ and the “kcat (D)” value is 0.375 ± 0.025 s⁻¹. For the same molecule, the “kcat (H)” value in [2] (setting [15]) is 1.57 ± 0.12 s⁻¹.

`NCc1ccc(Cl)cc1` [p-CI]: in series [2] (setting [14]), the Km was 94 ± 10 µM. In series [2] (zMAO), the “^Dkcat” value is 5.9 ± .2 min⁻¹ and the “kcat (D)” value worked out at 0.0983 ± 0.00283 s⁻¹. Also, the “kcat (H)” value in series [2] (setting [15]) came out at 0.583 ± 0.017 s⁻¹.

As to `C(=CCc1ccccc1)Cc1ccccc1` [1,4-Diphenyl-2-Butene], the Ki result in series [1] (setting [13]) is “No inhibition”.

In the case of `NCc1ccc(Br)cc1` [p-Br], the Km in series [2] (setting [14]) is 103 ± 20 µM. For the same molecule, in series [2] (zMAO), the “^Dkcat” value worked out at 8.2 ± 0.7 min⁻¹ and the “kcat (D)” value was determined as 0.0813 ± 0.00283 s⁻¹. In [2] (setting [15]), the “kcat (H)” value is 0.667 ± 0.05 s⁻¹.

As for `CC(C)(C)c1ccc(CN)cc1` [p-t-Butyl], the Km in [2] (setting [14]) stood at 48 ± 6 µM. In series [2] (zMAO), the “^Dkcat” value was determined as 2.0 ± 0.1 min⁻¹ and the “kcat (D)” value worked out at 0.0567 ± 0.0033 s⁻¹. The “kcat (H)” value in series [2] (setting [15]) worked out at 0.115 ± 0.0033 s⁻¹.

As to `C[C@H](N)Cc1ccccc1` [d-Amphetamine], the Mode of inhibition result in [1] (zMAO catalyzed kynuramine oxidation) was “uncompetitive inhibitor”; at hMAO A [3] (human MAO A, ref Vintém et al., 2005), “competitively inhibits”; at hMAO B [5] (human MAO B, depending on the substrate, ref Pearce and Roth, 1985) it was “either as a competitive or as a mixed inhibitor”. Besides, the Ki was 38 ± 5.1 µM in series [1] (setting [16]) and 280 ± 10 µM at hMAO B [5] (hMAO B, ref Li, (2006)).

As to `Cn1c(=O)c2c(nc(C=Cc3cccc(Cl)c3)n2C)n(C)c1=O` [8-(3-Chlorostyryl)-caffeine], the Ki in series [1] turned out to be 2.4 ± 0.6 µM.

For `CC(C)=CCC/C(C)=C/CC/C(C)=C/CO` [Farnesol, trans-trans-farnesol], the Ki entry in series [1] (setting [13]) was “No inhibition”.

Regarding `NCc1cccnc1` [3-Aminomethylpyridine], the Substrate behaviour entry in [2] (zMAO) is listed as “Not a Substrate”. Also, at hMAO B [6] (ref Li, (2006)), the kcat is reported as 223 ±5 ^c min^−1. Besides, the Ki at hMAO A [3] (competitive inhibitor, ref Li, (2006)) was 5200 µM.

As for `COc1ccc(CN)cc1` [p-MeO], the Km in series [2] (setting [14]) turned out to be 55.5 ± 4.1 µM. In series [2] (zMAO), the “^Dkcat” value amounted to 5.9 ± 0.7 min⁻¹ and the “kcat (D)” value was 0.0237 ± 0.00083 s⁻¹. In addition, the “kcat (H)” value in series [2] (setting [15]) is 0.138 ± 0.012 s⁻¹.

With `NCCc1c[nH]c2ccc(O)cc12` [Serotonin], the Km at hMAO A [7] (et al. (2002)) is 295 ± 46 µM; at hMAO B [6] (setting [17]), 2270 ± 310 µM.

For `Cc1nccc2c1[nH]c1ccccc12` [Harmane], the Ki in [1] was 0.13 ± 0.02 µM.

Regarding `NCCc1ccc(O)cc1` [Tyramine], the kcat in series [2] (zMAO, 25 °C, pH 7.4) was 7.78 s⁻¹; on hMAO A [7] ((2006), listed as tyramine), 182 min⁻¹; at hMAO A [7] ((2006)) it was 182 ±26 ^c min^−1. Further, at hMAO A [7] ((2006)), the Km is 427 ± 18 µM.

In the case of `NCCc1ccc(O)c(O)c1` [Dopamine], the kcat in [2] (zMAO, 25 °C, pH 7.4) is 4.03 s⁻¹; at hMAO A [7] (et al. (2002)), 71 ±4 ^a min^−1; on hMAO B [6] (setting [17]), 65 ±12 ^b min^−1. Moreover, the Km on hMAO A [7] (et al. (2002)) was 240 ± 42 µM; at hMAO B [6] (setting [17]), 128 ± 15 µM.

`NCc1ccccc1` [p-H, benzylamine] returned a Kd in [2] of 3.3 µM. Also, in [2] (zMAO), the “^Dkcat” value was determined as 2.0 ± 0.2 min⁻¹ and the “kcat (D)” value amounted to 0.039 ± 0.00333 s⁻¹.

On to `NCc1ccc(F)cc1` [p-F], for which the Km in [2] (setting [14]) turned out to be 161 ± 8 µM. In addition, in series [2] (zMAO), the “^Dkcat” value amounted to 6.7 ± 0.2 min⁻¹ and the “kcat (D)” value amounted to 0.0372 ± 0.00083 s⁻¹. For the same molecule, in series [2] (setting [15]), the “kcat (H)” value is 0.248 ± 0.005 s⁻¹.

As to `CS(=O)(=O)O.c1cc2c(cc1C1CCCCC1)c1c3n2CCNC3CCC1` (stereo not drawn) [Tetrindole Mesylate], the Ki was 34.1 ± 2 µM in series [1] (setting [16]); 5.3 ± 0.2 µM at hMAO A [3] (ref Wang, et al. (2009)); “No Inhibition” on hMAO B [4].

As to `NCCC(=O)c1ccccc1N` [Kynuramine], the kcat in series [2] (zMAO, 25 °C, pH 7.4) was 1.25 s⁻¹; on hMAO A [7] (et al. (2002)), 125 ±8 ^a min^−1; at hMAO B [6] (setting [17]), 96 ±11 ^b min^−1.

B1: zebrafish monoamine oxidase (zMAO) (Danio rerio) (protein)
chain: T1 sequence (Q6NSN2 1-522)
With B1, the Km in [8] came to 88 ± 14 µM; in series [9], 185 ± 17 µM; in series [10], 18 ± 3 µM; in [11] it was 58 ± 5 µM; in series [12], 82.2 ± 9.0 µM. Further, the kcat in series [8] is 4.03 s⁻¹; in series [9], 2.07 ± 0.0667 s⁻¹; in series [10], 7.78 ± 0.333 s⁻¹; in series [11], 1.25 ± 0.0333 s⁻¹; in series [12], 0.0783 ± 0.0017 s⁻¹. Further, the kcat/Km in [9] came out at 11200 M⁻¹ s⁻¹.

In general, Ki refers to the equilibrium dissociation constant of an inhibitor or competing ligand from its target. One may read the Km as the concentration of substrate that gives half-maximal velocity. By kcat is commonly meant the number of substrate molecules converted per active site and unit of time at saturation. Usually Kd stands for the free concentration of one partner at which half of the binding sites on the other are occupied at equilibrium, for simple one-to-one binding. The kcat/Km is the second-order rate constant that governs catalysis at low substrate concentration.

These data come from PMC3071876 (Comparative biochemistry and physiology. Part B, …, 2011).
